{"source": "patent US7465471B2", "about": "“Palatability of aquaculture feed” (Novus International, Inc., priority 2003, dated 2008)", "key": {"[1]": {"system": "mold", "experiment": "Mold growth in starter mash by CO2 formation in headspace (Examples 7, 8)", "settings": "basal diet 85.2% dry matter; 2.0, 1.5 and 1.0 lb/ton; FIG. 12", "procedure": "Fungal growth in basal starter mash was studied in compositions supplemented with DLM or Alimet® as the methionine source. Total microbial growth was monitored by measuring carbon dioxide (CO2) formation in sealed vessels at 28° C. over time.\nThe technique of using a closed system and measuring CO2 formation has been verified as an approximation of the conditions found in grain storage bins. See, e.g., Muir et al., Trans. ASAE, 28(5) 1673-1675 (1985), the contents of which are hereby incorporated by reference in their entirety.\nA mash starter mash feed (formulation shown in Table 9, below) was subdivided into three groups: basal (control), 0.2% DLM, or 0.2% Alimet®. The feed studied had no commercial mold inhibitors added, and is representative of a typical broiler feed.\nInitial moisture of the feed was 10.8%. After the addition of Alimet® or DLM, the moisture of the samples was adjusted by the addition of 2%, 4%, or 6% sterile distilled water to promote mold growth, achieving three moisture groups: […].\nFor each study, four replicate samples of each moisture group were mixed, and 600 g of the mixture was placed into 1 L containers, sealed, and placed at 28° C. in a temperature-controlled room. Draeger Detector tubes (CO2-measuring, obtained from Fisher Scientific) were used to measure the developed CO2 at different days following vessel sealing (two measurements were made per week). Draeger Short-Term Detector Tubes are glass tubes filled with inert carrier and an indicating reagent. The reagent produces a colorimetric indication in the presence of a particular gas (CO2). The concentration of gas is read directly from the discoloration on the tube's printed scale.\nThe specific mold species present were not identified. Statistical analysis was accomplished by using Duncan's multiple range test (SAS). Different letters on individual time points in FIGS. 9-11 indicate statistical differences of P<0.05.\nThe experiment described above in Example 7 was repeated with blends of 2.0 lb/ton, 1.5 lb/ton, 1.0 lb/ton or 0.5 lb/ton of 65% propionic acid and either […]. The blends were prepared according to the matrix outlined in Table 8, below. The 65% propionic acid was buffered with ammonium hydroxide to a pH of 5.5."}, "[2]": {"system": "Salmonella", "settings": "for Average cfu/g / Average log / Average Δ log: protocol of Example 9; for Average Δ log: versus control; for Δ log: Table 11, 90 min 37 C", "quoted_text": "Tests were carried out using 1 g feed (crumble ground) with 6% meat and bone meal (“MBM”). […] The acid solutions were added to the feed as indicated below; water (1 mL) and 150 mM HCl (1.8 mL) was added to bring the pH to 4.0. Naldixic Acid resistant Salmonella (provided by Dr. Stan Bailey, USDA/ARS, Athens, Ga.) (initial colony count=40,000 cfu/g) was added, and the feed solutions were incubated at 37 C for 90 min. Each sample was diluted with 6 mL H2O, plated, and counted the following day."}, "[3]": {"system": "S. enteritidis", "experiment": "S. enteritidis colony counts in broth (Examples 1-3, 17)", "settings": "pH 4.5; for log cfu/mL: Table 24, blends total 5 g/L, control […]; for log cfu/mL (S. enteritidis colony counts in broth): total 5 g/L, protocol of Example 1; for inhibitory effect on S. enteritidis: 5 g/l, Example 17"}, "[4]": {"system": "E. coli (ATCC 25922)", "experiment": "E. coli populations in trypticase soy broth with acid:Alimet blends (Example 4)", "assay_type": "cell-based", "settings": "Table 7, total 6 g/L, initial 4.97 log cfu/mL", "excerpt": "Blends of organic acid:Alimet® of 2:1 and 5:1 were studied, at a total concentration (organic acid+Alimet®) of 6 g/L.\nThe pH of the solutions were originally adjusted to pH 5 by addition of HCl and/or NaOH as needed. Activated E. coli culture solutions were transferred to fresh soy broth twice at 24-hour intervals prior to before addition of the organic acid:Alimet® blend. E. coli culture solutions were centrifuged; pellet produced was re-suspended with Butterfield buffer, and the resulting solutions were diluted to approximately 10^7 CFU E. coil/mL.\nBottles were inoculated with 100 μL of prepared bacterial suspension and an organic acid:Alimet® blend. Samples were taken after five and 24 hours of incubation, serially diluted and spread-plated on trypticase soy agar, and incubated at 35° C. for 24 hours."}, "[5]": {"system": "Common carp, Cyprinus carpio L.", "experiment": "Feeding preference of common carp, number of bites (Example 25)", "assay_type": "in vivo", "settings": "for Bites/10 minutes: test diet vs control diet in same tank", "procedure": "Common carp, Cyprinus carpio L. from a commercial fish farm were acquired and sorted to common body weight and length, about 20 g and 8-11 cm, respectively. […] Diets were mixed with adequate water to create a stable feed ball. […] Twenty tanks (45 cm×40 cm×45 cm) were dedicated the feeding behavior assessment. Two fish were housed in each tank with two feeding bars per tank. […] The water in each tank was aerated 24 h a day and the fish were fed the control diet under the above conditions for one week prior to the study. To evaluate preference, the control and test diets were each placed on one of the two bars in each tank."}, "[6]": {"system": "E. coli", "experiment": "E. coli colony counts over time in soy broth at pH 4 or 7.3 (Example 5)", "assay_type": "cell-based", "settings": "FIG. 5", "procedure": "The cultures were incubated, and colony counts performed at increasing times."}, "[7]": {"settings": "Table 26, acid or formaldehyde plus Alimet"}, "[8]": {"settings": "Table 34, formulations of Table 33 (g/kg)"}, "[9]": {"settings": "Table 37, formulations of Table 36 (g/kg)"}, "[10]": {"settings": "Table 38, formulations of Table 36 (g/kg)"}}, "note": "Structures can show the parent of a compound that is named as a salt. Where two headings read alike, the source gives them in different places."}
{"smiles": "CCC(=O)O", "note": "[65% propionic acid, propionic acid]", "values": [{"measurement": "delay of the onset of mold growth", "setting": "[1]", "value": "about 11 days"}]}
{"smiles": "CCCC(=O)O", "note": "[Blend A16]", "values": [{"measurement": "log cfu/g", "setting": "[2]; Table 13, blends without Alimet, control 4.7", "value": 2.7, "unit": "log cfu/g"}, {"measurement": "Δ log reduction", "setting": "[2]; Table 13, blends without Alimet, vs control", "value": 2.0}]}
{"smiles": "O=CO", "note": "[Blend A81]", "values": [{"measurement": "log cfu/mL", "setting": "[3]", "value": 3.93, "unit": "log cfu/mL"}]}
{"smiles": "CCCC(=O)O", "note": "[Blend A87]", "values": [{"measurement": "log cfu/mL", "setting": "[3]", "value": 4.44, "unit": "log cfu/mL"}]}
{"smiles": "O=C(O)CC(O)(CC(=O)O)C(=O)O", "note": "[Blend A93]", "values": [{"measurement": "log cfu/mL", "setting": "[3]", "value": 4.74, "unit": "log cfu/mL"}]}
{"smiles": "O=C(O)/C=C/C(=O)O", "note": "[Blend A99]", "values": [{"measurement": "log cfu/mL (S. enteritidis colony counts in broth)", "setting": "[3]; Table 25, acid plus Alimet", "value": 4.68, "unit": "log cfu/mL"}]}
{"smiles": "CC(O)C(=O)O", "note": "(stereo not shown) [Blend A105]", "values": [{"measurement": "log cfu/mL (S. enteritidis colony counts in broth)", "setting": "[3]; Table 25, acid plus Alimet", "value": 4.44, "unit": "log cfu/mL"}]}
{"smiles": "O=C(O)CC(O)C(=O)O", "note": "(stereo not shown) [Blend A111]", "values": [{"measurement": "log cfu/mL (S. enteritidis colony counts in broth)", "setting": "[3]; Table 25, acid plus Alimet", "value": 5.01, "unit": "log cfu/mL"}]}
{"smiles": "CCC(=O)O", "note": "[Blend A117]", "values": [{"measurement": "log cfu/mL (S. enteritidis colony counts in broth)", "setting": "[3]; [7]", "value": 4.34, "unit": "log cfu/mL"}]}
{"smiles": "O=P(O)(O)O", "note": "[Blend A123]", "values": [{"measurement": "log cfu/mL (S. enteritidis colony counts in broth)", "setting": "[3]; [7]", "value": 4.68, "unit": "log cfu/mL"}]}
{"smiles": "C=O", "note": "[Blend A129]", "values": [{"measurement": "log cfu/mL (S. enteritidis colony counts in broth)", "setting": "[3]; [7]", "value": "−0.30", "unit": "log cfu/mL"}]}
{"smiles": "CCCC(=O)O", "note": "[Blend A147]", "values": [{"measurement": "Trial 1 cfu/g", "setting": "[2]; Table 34", "value": "22,200 cfu/g"}, {"measurement": "Trial 2 cfu/g", "setting": "[2]; Table 34", "value": "15,400 cfu/g"}, {"measurement": "Average cfu/g", "setting": "[2]; [8]", "value": "18,800 cfu/g"}, {"measurement": "Average log", "setting": "[2]; [8]", "value": 4.3}, {"measurement": "Average Δ log", "setting": "[2]; Table 34", "value": 0.4}]}
{"smiles": "CCCC(=O)O", "note": "[Blend A177]", "values": [{"measurement": "Trial 1 cfu/g", "setting": "[2]; Table 37", "value": "5,400 cfu/g"}, {"measurement": "Trial 2 cfu/g", "setting": "[2]; Table 37", "value": "7,000 cfu/g"}, {"measurement": "Trial 3 cfu/g", "setting": "[2]; Table 37", "value": "6,600 cfu/g"}, {"measurement": "Average cfu/g", "setting": "[2]; [9]", "value": "6,333 cfu/g"}, {"measurement": "Average log", "setting": "[2]; [9]", "value": 3.8}, {"measurement": "Average Δ log", "setting": "[2]; Table 37", "value": 0.5}]}
{"smiles": "CCC(=O)O", "note": "[Blend A204]", "values": [{"measurement": "Trial 1 cfu/g", "setting": "[2]; Table 38", "value": "5,400 cfu/g"}, {"measurement": "Trial 2 cfu/g", "setting": "[2]; Table 38", "value": "1,600 cfu/g"}, {"measurement": "Average cfu/g", "setting": "[2]; [10]", "value": "3,500 cfu/g"}, {"measurement": "Average log", "setting": "[2]; [10]", "value": 3.5}, {"measurement": "Average Δ log", "setting": "[2]; Table 38", "value": 0.6}]}
{"smiles": "CSCCC(O)C(=O)O", "note": "(stereo not shown) [Blend A207]", "values": [{"measurement": "Trial 1 cfu/g", "setting": "[2]; Table 38", "value": 0, "unit": "cfu/g"}, {"measurement": "Trial 2 cfu/g", "setting": "[2]; Table 38", "value": 0, "unit": "cfu/g"}, {"measurement": "Trial 3 cfu/g", "setting": "[2]; Table 38", "value": 0, "unit": "cfu/g"}, {"measurement": "Trial 4 cfu/g", "setting": "[2]; Table 38, Trial 4", "value": 0, "unit": "cfu/g"}, {"measurement": "Average cfu/g", "setting": "[2]; [10]", "value": 0, "unit": "cfu/g"}, {"measurement": "Average Δ log", "setting": "[2]; Table 38", "value": 4.2}]}
{"smiles": "Cl", "note": "[HCl, hydrochloric acid]", "values": [{"measurement": "log cfu/mL t = 4 h", "setting": "[4]", "value": 7.85, "unit": "log cfu/mL"}, {"measurement": "log cfu/mL t = 24 h", "setting": "[4]", "value": 8.34, "unit": "log cfu/mL"}]}
{"smiles": "CSCCC(O)C(=O)O", "note": "(stereo not shown) [MHA, methionine hydroxy analog]", "values": [{"measurement": "Bites/10 minutes", "setting": "[5]; MHA 0.077 % Inclusion", "value": "74.39 ± 14.14", "unit": "Bites/10 minutes"}, {"measurement": "Bites/10 minutes", "setting": "[5]; MHA 0.154 % Inclusion", "value": "67.73 ± 23.18", "unit": "Bites/10 minutes"}, {"measurement": "Bites/10 minutes", "setting": "[5]; MHA 0.308 % Inclusion", "value": "63.52 ± 20.23", "unit": "Bites/10 minutes"}, {"measurement": "number of bites vs control diet", "setting": "[5]; common carp, 10 minutes, 0.07-0.28% Alimet or 0.077-0.308% MHA in diet", "value": "significantly higher"}]}
{"smiles": "O=P(O)(O)O", "note": "[Phosphoric, phosphoric acid]", "values": [{"measurement": "inhibitory effect on S. enteritidis", "setting": "[3]", "value": "do not show a significant inhibitory effect"}]}
{"smiles": "CCCC(=O)O", "note": "[butyric, butyric acid]", "values": [{"measurement": "Δ log", "setting": "[2]; 10 g/L, vs control", "value": 0.7}, {"measurement": "Δ log", "setting": "[2]; 30 g/L, vs control", "value": 4.0}, {"measurement": "Δ log", "setting": "[2]; 50 g/L, vs control", "value": 4.0}]}
{"smiles": "O=C(O)/C=C/C(=O)O", "note": "[fumaric, fumaric acid]", "values": [{"measurement": "inhibitory effect on S. enteritidis", "setting": "[3]", "value": "do not show a significant inhibitory effect"}]}
{"smiles": "CC(O)C(=O)O", "note": "(stereo not shown) [lactic, lactic acid]", "values": [{"measurement": "decrease of colony counts of E. coli vs hydrochloric acid", "setting": "[6]", "value": "better than hydrochloric acid"}, {"measurement": "inhibitory effect on S. enteritidis", "setting": "[3]", "value": "do not show a significant inhibitory effect"}]}
{"smiles": "O=C(O)CC(O)C(=O)O", "note": "(stereo not shown) [malic, malic acid]", "values": [{"measurement": "inhibitory effect on S. enteritidis", "setting": "[3]", "value": "do not show a significant inhibitory effect"}]}
{"smiles": "CCC(=O)O", "note": "[propionic, propionic acid]", "values": [{"measurement": "inhibitory effect on S. enteritidis", "setting": "[3]", "value": "do not show a significant inhibitory effect"}]}
